# Assay results reported in article PMC7377239, “Cardiovascular Effects of Polychlorinated Biphenyls and Their Major Metabolites” (Environmental Health Perspectives, 2020).
# Like-named read-outs stand apart in the source and are kept apart here.
# Test system: iCell cardiomyocytes (human iPSC-derived cardiomyocytes)
# Test: High-content imaging of cytotoxicity and mitochondrial integrity in iPSC-CMs
# Assay type: cell-based
# Details: Homo sapiens, Cardiomyocyte; for viability at 0.01 µM / activity at 0.01 µM / viability at 0.1 µM / activity at 0.1 µM / viability at 1 µM / activity at 1 µM / viability at 10 µM / activity at 10 µM / viability at 100 µM / activity at 100 µM: 0.00 µM = 100.00; for viability at 0.1 µM / activity at 0.1 µM: 0.10 µM
# Method in brief: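 Readouts from high-content images were normalized to vehicle controls containing 0.5% vol/vol DMSO. They were fit to a four-parameter logistic model in R. Points of departure were set using a cutoff of one standard deviation across vehicle control means. Where no concentration–response was seen, the top tested concentration of 100μM was assigned as the no observable adverse effect level.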
# [1] = 1.5 h, 90min, read-out: cm.cam.90min
# [2] = 1.5 h, 90min, read-out: cm.mii.90min
# [3] = 1.5 h, 90min, read-out: cm.mito.90min
# [4] = 1.5 h, 90min, read-out: cm.tc.90min
# [5] = 24 h, 24hrs, read-out: cm.cam.24hrs
# [6] = 24 h, 24hrs, read-out: cm.mii.24hrs
# [7] = 24 h, 24hrs, read-out: cm.mito.24hrs
# [8] = 24 h, 24hrs, read-out: cm.tc.24hrs
smiles,measurement,setting,value
COc1cc(Cl)c(-c2cc(Cl)ccc2Cl)cc1Cl [4-OMe PCB52],viability at 0.01 µM,[1],94.3%
same,activity at 0.01 µM,[2],101%
same,activity at 0.01 µM,[3],94.1%
same,viability at 0.01 µM,[4],94.2%
same,viability at 0.1 µM,[1],98.7%
same,activity at 0.1 µM,[2],90.9%
same,activity at 0.1 µM,[3],98.7%
same,viability at 0.1 µM,[4],98.8%
same,viability at 1 µM,[1],101%
same,activity at 1 µM,[2],95.2%
same,activity at 1 µM,[3],101%
same,viability at 1 µM,[4],101%
same,viability at 10 µM,[1],100%
same,activity at 10 µM,[2],108%
same,activity at 10 µM,[3],99.8%
same,viability at 10 µM,[4],100%
same,viability at 100 µM,[1],0.37%
same,activity at 100 µM,[2],69.6%
same,activity at 100 µM,[3],0.37%
same,viability at 100 µM,[4],0.46%
same,minimal effective concentration,"1.5 h, 90min, read-out: cm.cam.90min POD",27.6 µM
same,minimal effective concentration,"1.5 h, 90min, read-out: cm.mii.90min POD",57.2 µM
same,minimal effective concentration,"1.5 h, 90min, read-out: cm.mito.90min POD",18.6 µM
same,minimal effective concentration,"1.5 h, 90min, read-out: cm.tc.90min POD",33 µM
same,viability at 0.01 µM,[5],97.9%
same,activity at 0.01 µM,[6],95.9%
same,activity at 0.01 µM,[7],98.7%
same,viability at 0.01 µM,[8],98.3%
same,viability at 0.1 µM,[5],106%
same,activity at 0.1 µM,[6],91.2%
same,activity at 0.1 µM,[7],107%
same,viability at 0.1 µM,[8],106%
same,viability at 1 µM,[5],102%
same,activity at 1 µM,[6],99.8%
same,activity at 1 µM,[7],101%
same,viability at 1 µM,[8],102%
same,viability at 10 µM,[5],102%
same,activity at 10 µM,[6],78.7%
same,activity at 10 µM,[7],103%
same,viability at 10 µM,[8],102%
same,viability at 100 µM,[5],4.05%
same,activity at 100 µM,[6],55.8%
same,activity at 100 µM,[7],2.86%
same,viability at 100 µM,[8],4.37%
same,minimal effective concentration,"24 h, read-out: cm.cam.24hrs POD",33 µM
same,minimal effective concentration,"24 h, read-out: cm.mii.24hrs POD",5.58 µM
same,minimal effective concentration,"24 h, read-out: cm.mito.24hrs POD",35.8 µM
same,minimal effective concentration,"24 h, read-out: cm.tc.24hrs POD",35 µM
"COc1cc(Cl)c(-c2cc(Cl)ccc2Cl)cc1Cl [4-OMe-PCB 52, 4-methoxy-2,2′,5,5′-tetrachlorobiphenyl]",minimal effective concentration,"1.5 h, cardiomyocytes (cm), cam, 90 min, read-out: POD cm.cam.90min",27.6 µM
same,minimal effective concentration,"1.5 h, cardiomyocytes (cm), mii, 90 min, read-out: POD cm.mii.90min",57.2 µM
same,minimal effective concentration,"1.5 h, cardiomyocytes (cm), mito, 90 min, read-out: POD cm.mito.90min",18.6 µM
same,minimal effective concentration,"1.5 h, cardiomyocytes (cm), tc, 90 min, read-out: POD cm.tc.90min",33 µM
same,minimal effective concentration,"24 h, cardiomyocytes (cm), cam, 24 hrs, read-out: POD cm.cam.24hrs",33 µM
same,minimal effective concentration,"24 h, cardiomyocytes (cm), mii, 24 hrs, read-out: POD cm.mii.24hrs",5.58 µM
same,minimal effective concentration,"24 h, cardiomyocytes (cm), mito, 24 hrs, read-out: POD cm.mito.24hrs",35.8 µM
same,minimal effective concentration,"24 h, cardiomyocytes (cm), tc, 24 hrs, read-out: POD cm.tc.24hrs",35 µM
